In US11980209B2, “Consumables” (GIVAUDAN SA, priority 2007, dated 2024):
Entries after “also recorded” stand apart in the source; their conditions may differ.

What was measured:
Assay type in all cases: in vivo, human
[1] = system: perceived sweetness (sweet sensitive panelists); assay: Ranking test with R-index, sweetness of trilobatin (750 ppm) in yogurt (Example 13); settings: for R-index: critical value 37.4 to 62.6%
Description: The sucrose concentration isointense to 750 ppm trilobatin in a plain yogurt base was determined as follows.
Samples contained a plain yogurt base with 750 ppm trilobatin, or the same plain yogurt base with sucrose in various concentrations (0%, 0.5%, 1.0%, 1.5%, and 2.0% sucrose).
30 ml of each yogurt sample was served cold, in random order, to 21 sweet sensitive panelists. In two replications over 1 session, panelists were asked to rank the samples from least sweet to most sweet. The data was subjected to an R-index analysis.

[2] = system: perceived sweetness (sweet sensitive panelists); assay: Sweetness detection threshold of trilobatin in yoghurt (Example 8); settings: for Sweetness of 500 ppm trilobatin sample: plain nonfat yoghurt
Description: Trilobatin was tested by 6 sweet sensitive panelists in plain nonfat yoghurt.
Yoghurt samples were 500 ppm trilobatin, 1% sucrose, and 2% sucrose. Panelists compared the 500 ppm trilobatin sample to each sucrose sample and compared the sweetness, the results are indicated in the table below.

[3] = system: perceived sweet taste (sweet sensitive panelists); assay: Ranking test, isointensity of 200 ppm trilobatin in water (Example 1c)
Description: The sensory evaluation was conducted using the method described in example 1b. The panels consisted of 7 sweet sensitive panelists. Panelists were presented with 0.5%, 1%, and 1.5% sucrose solutions in water and a fourth sample of 200 ppm trilobatin in water. Panelists were asked to rank the samples from low to high with respect to perceived sweet taste. 200 ppm trilobatin in water was determined to be isosweet to 1% sucrose.
The sweetness detection threshold for individuals within the average consumer group varies from below 0.4% to 0.7% sucrose or more. All examples were performed with sweet sensitive panelists able to detect at least 0.5% sucrose or less. Extrapolating from examples 1 a, b, and c, the concentration detectable by the average consumer will therefore be higher, and the average concentration near the sweetness detection threshold of the average consumer will be about 100 to 200 ppm.

[4] = system: perceived sweet taste (sweet sensitive panelists); assay: Ranking test with R-index, isointensity of 100 ppm trilobatin in water (Example 1b); settings: for R-index: critical values 35.39-64.61%
Description: The sensory evaluation was conducted using a ranking method. Samples at ambient temperature were randomly presented in 15 ml blind aliquots (unidentifiable by panelists). Panels consisted of 15 sweet sensitive subjects and samples were presented in 2 replications over 1 session. After tasting each sample, the mouth was rinsed thoroughly with water at ambient temperature prior to tasting the next sample. Panelists were presented with 0.5%, 1%, 1.5% and 2% sucrose solutions in water and a fifth sample of 100 ppm trilobatin in water. Subjects were asked to rank the samples from low to high with respect to perceived sweet taste. R-indices were calculated for 100 ppm trilobatin versus either 0.5%, 1%, 1.5% or 2% sucrose.

[5] = system: perceived sweetness (panelists); assay: Sweetness detection threshold of trilobatin in milk (Example 10)
Description: Trilobatin was tested by 6 panelists in whole milk.
Milk samples were 62.5 ppm, 125 ppm, 250 ppm, 500 ppm trilobatin; 1% sucrose, and 2% sucrose.

[6] = system: perceived sweet taste (sweet sensitive panelists); assay: Direct comparison of 100 ppm trilobatin in 7% sucrose with 7.5% sucrose solution (Example 2a); settings: all of 8 sweet sensitive panelists
[7] = system: perceived sweetness (one panelist trained for sweetness detection); assay: Paired comparison of 20-100 ppm trilobatin versus 0-1% sucrose (Example 1a)
Description: Trilobatin (20 ppm, 60 ppm, 100 ppm) in water samples were evaluated for isointensity to sucrose solutions in a concentration of 0, 0.5 and 1% sucrose using a paired comparison method. Samples were paired and tasted left to right with rinsing (water) in between, by one panelist trained for sweetness detection.
The trilobatin samples were compared to either 0%, 0.5%, or 1% sucrose solutions.

[8] = system: perceived sweetness (sweet sensitive panelists); assay: Sweetness enhancement by trilobatin in cereals (Example 11); settings: tested in whole milk, vs cereal with 1% added sucrose
Description: Trilobatin was tested by 4 sweet sensitive panelists in cereal samples (cereals from Kix, General Mills; USA). The cereal is a comparatively low sugar product and contains 3 g sucrose per 30 g cereal. Panelists tested the samples in whole milk. To the cereal samples, sucrose was topically added by spraying the corresponding amount of a 10% sucrose solution in water to give 1%. The samples were baked at 250° C. for about 15 minutes in a convection oven to dry/remove the water. Similarly, trilobatin was applied to cereal samples as a 0.1% solution in 50/50 w/w ethanol/water to give various trilobatin concentrations (100 ppm, 200 ppm, 400 ppm).

[9] = system: perceived sweet taste (sweet sensitive panelists); assay: Ranking test with R-index, isointensity of 100 ppm trilobatin in 7% sucrose solution (Example 2a); settings: for R-index: critical values 35.39-64.61%
Description: The sensory evaluation was conducted using a ranking method. Samples at ambient temperature were randomly presented in 15 ml blind aliquots (unidentifiable by panelists). Panels consisted of 15 sweet sensitive subjects and samples were presented in 2 replications over 1 session. After tasting each sample, the mouth was rinsed thoroughly with water at ambient temperature prior to tasting the next sample. Panelists were presented with 7%, 8%, 9%, 10% and 11% sucrose solutions in water and a sixth sample of 100 ppm trilobatin in 7% sucrose. Subjects were asked to rank the samples from low to high with respect to perceived sweet taste. R-indices were calculated for 100 ppm trilobatin in 7% sucrose versus either 7%, 8%, 9%, 10% or 11% sucrose.

[10] = 750 ppm TL in plain yogurt vs 0% sucrose yogurt
[11] = 750 ppm TL in plain yogurt vs 0.5% sucrose yogurt
[12] = 750 ppm TL in plain yogurt vs 1% sucrose yogurt
[13] = 750 ppm TL in plain yogurt vs 1.5% sucrose yogurt
[14] = 750 ppm TL in plain yogurt vs 2% sucrose yogurt
[15] = 100 ppm trilobatin in water vs 0.5% sucrose
[16] = 100 ppm trilobatin in 7% sucrose

In the case of O=C(CCc1ccc(O)cc1)c1c(O)cc(O[C@@H]2O[C@H](CO)[C@@H](O)[C@H](O)[C@H]2O)cc1O [trilobatin, 1-[4-(beta-D-glucopyranosyloxy)-2,6-dihydroxyphenyl]-3-(4-hydroxyphenyl)-1-propanone], the “sweetness TL sample” value [1, 10] is reported as “sweeter”, the R-index [1, 10] is reported as 82.6% and the “sweetness TL sample” value [1, 11] is reported as “isosweet”. The R-index [1, 11] was 58.5%, the “sweetness TL sample” value [1, 12] was “less” and the R-index [1, 12] was 14.7%. For the same compound, the “sweetness TL sample” value [1, 13] was “less”, the R-index [1, 13] was 4.4% and the “sweetness TL sample” value [1, 14] was “less”. The R-index [1, 14] was 3.3%, the isointensity to sucrose ([1]; 750 ppm trilobatin in plain yogurt) was 0.5 % sucrose and the “own sweetness equivalent to sucrose” value ([2]; 500 ppm trilobatin in yoghurt) was 1 % sucrose. The “Sweetness of 500 ppm trilobatin sample” value ([2]; vs 1% sucrose yoghurt sample) was “slightly less sweet/similarly sweet”, the “Sweetness of 500 ppm trilobatin sample” value ([2]; vs 2% sucrose yoghurt sample) was “less sweet” and the isointensity to sucrose ([3]; 200 ppm trilobatin in water) was 1 % sucrose. The “average concentration near the sweetness detection threshold of the average consumer” value ([3]; extrapolating from examples 1a, b and c) was 100 to 200 ppm, the “sample sweetness (trilobatin, 100 ppm)” value ([4]; 100 ppm in water vs 0.5% sucrose solution) was “Isosweet” and the “sample sweetness (trilobatin, 100 ppm)” value ([4]; 100 ppm in water vs 1.0% sucrose solution) was “Less sweet”. For the same compound, the “sample sweetness (trilobatin, 100 ppm)” value ([4]; 100 ppm in water vs 1.5% sucrose solution) was “Less sweet”, the “sample sweetness (trilobatin, 100 ppm)” value ([4]; 100 ppm in water vs 2.0% sucrose solution) was “Less sweet” and the isointensity to sucrose ([4]; 100 ppm trilobatin in water) was 0.5 % sucrose. The R-index [4, 15] was 44%, the R-index ([4]; 100 ppm trilobatin in water vs 1.0% sucrose) was 13% and the R-index ([4]; 100 ppm trilobatin in water vs 1.5% sucrose) was 0%. For the same compound, the R-index ([4]; 100 ppm trilobatin in water vs 2.0% sucrose) was 0%, the “Trilobatin sample sweetness compared to sucrose” value ([5]; 62.5 ppm in whole milk, 6/6 panelists) was “below 1% sucrose (6/6)” and the “Trilobatin sample sweetness compared to sucrose” value ([5]; 125 ppm in whole milk, 6/6 panelists) was “below 1% sucrose (6/6)”. The “Trilobatin sample sweetness compared to sucrose” value ([5]; 250 ppm in whole milk, 6/6 panelists) was “below 1% sucrose (6/6)”, the “Trilobatin sample sweetness compared to sucrose” value ([5]; 500 ppm in whole milk, 3/6 panelists (below)) was “below 1% sucrose (3/6)” and the “taste in direct comparison with 7.5% sucrose solution” value [6] was “significantly sweeter”. The “Taste of trilobatin samples compared to sucrose” value (“Taste … compared to sucrose” below) ([7]; 20 ppm trilobatin in water vs 0% sucrose) was “isosweet”, the “Taste … compared to sucrose” value ([7]; 20 ppm trilobatin in water vs 0.5% sucrose) was “notably less sweet” and the “isointensity to sucrose, by interpolation” value ([7]; 60 ppm trilobatin in water) was 0.25 % sucrose. For the same compound, the “Taste … compared to sucrose” value ([7]; 60 ppm trilobatin in water vs 0% sucrose) was “weakly sweeter”, the “Taste … compared to sucrose” value ([7]; 60 ppm trilobatin in water vs 0.5% sucrose) was “less sweet” and the “Taste … compared to sucrose” value ([7]; 100 ppm trilobatin in water vs 0% sucrose) was “sweeter”. For the same compound, the “Taste … compared to sucrose” value [7, 15] was “isosweet”, the “Taste … compared to sucrose” value ([7]; 100 ppm trilobatin in water vs 1% sucrose) was “less sweet” and the Sweetness trilobatin sample ([8]; 100 ppm trilobatin on cereal) was “less sweet than 1% sucrose”. For the same compound, the Sweetness trilobatin sample ([8]; 200 ppm trilobatin on cereal) was “sweeter than 1% sucrose”, the Sweetness trilobatin sample ([8]; 400 ppm trilobatin on cereal) was “much sweeter than 1% sucrose,; also recorded: too sweet” and the “added sucrose sweetness intensity” value [9, 16] was 1 ° Brix. For the same compound, the “expected isointensity to sucrose assuming a merely additive effect” value [9, 16] was 7.5 % sucrose, the isointensity to sucrose [9, 16] was 8 % sucrose and the R-index ([9]; 100 ppm trilobatin in 7% sucrose vs 7% sucrose) was 79%. It also gave a R-index ([9]; 100 ppm trilobatin in 7% sucrose vs 8% sucrose) of 38%, a R-index ([9]; 100 ppm trilobatin in 7% sucrose vs 9% sucrose) of 12% and a R-index ([9]; 100 ppm trilobatin in 7% sucrose vs 10% sucrose) of 1%. The R-index ([9]; 100 ppm trilobatin in 7% sucrose vs 11% sucrose) was 0%, the “sample sweetness (7% sucrose + 100 ppm trilobatin)” value ([9]; vs 7% sucrose solution) was “Sweeter” and the “sample sweetness (7% sucrose + 100 ppm trilobatin)” value ([9]; vs 8% sucrose solution) was “Isosweet”. The “sample sweetness (7% sucrose + 100 ppm trilobatin)” value ([9]; vs 9% sucrose solution) was “Less sweet”, the “sample sweetness (7% sucrose + 100 ppm trilobatin)” value ([9]; vs 10% sucrose solution) was “Less sweet” and the “sample sweetness (7% sucrose + 100 ppm trilobatin)” value ([9]; vs 11% sucrose solution) was “Less sweet”.
